Source: the supplement of paper PMC10307832

Experiments:
Test in all cases: relative viability (nuclei count vs DMSO), 5 days (fraction); higher = more cells survive
[1] = compound: CC(=O)Nc1cccc(-n2c(=O)n(C3CC3)c(=O)c3c(Nc4ccc(I)cc4F)n(C)c(=O)c(C)c32)c1 [Trametinib] + Cc1nc(NC(=O)N2CCC[C@H]2C(N)=O)sc1-c1ccnc(C(C)(C)C(F)(F)F)c1 [Alpelisib] (partner 2 µM)
How it was run: (§1)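 Relative viability equals treated-well nuclei counts divided by vehicle-well nuclei counts. Counts came from 4× images of lung cancer cell lines grown in 1536-well plates for 5 days after pin-tool dosing on the day after seeding. Dosing used one drug alone or a fixed anchor-drug dose plus five library-drug doses (not always all listed) in √10 steps, and values are medians of duplicate plates.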

[2] = compound: CN1C=C(C2=CC=CC=C21)/C=C\3/C4=C(C=CC=N4)NC3=O + COc1cccc2cc(-c3nc([C@H]4CC[C@H](C(=O)O)CC4)n4ncnc(N)c34)[nH]c12 [OSI-027] (partner 0.5 µM)
How it was run: as §1

[3] = compound: CC(=O)Nc1cccc(-n2c(=O)n(C3CC3)c(=O)c3c(Nc4ccc(I)cc4F)n(C)c(=O)c(C)c32)c1 [Trametinib] + N=C(N)NC(=N)NCCc1ccccc1 [Phenformin] (partner 250 µM)
How it was run: as §1

[4] = compound: CN1C=C(C2=CC=CC=C21)/C=C\3/C4=C(C=CC=N4)NC3=O + CS(=O)(=O)N1CCN(Cc2cc3nc(-c4cccc5[nH]ncc45)nc(N4CCOCC4)c3s2)CC1 [Pictilisib] (partner 1 µM)
How it was run: as §1

NCI-H1793
relative viability ([1]; first compound 0.0025 µM): 0.578
relative viability ([1]; first compound 0.007906 µM): 0.457
relative viability ([1]; first compound 0.025 µM): 0.28
relative viability ([1]; first compound 0.07906 µM): 0.425
relative viability ([1]; first compound 0.25 µM): 0.29
relative viability ([2]; first compound 0.02 µM): 0.283
relative viability ([2]; first compound 0.06325 µM): 0.252
relative viability ([2]; first compound 0.2 µM): 0.248
relative viability ([2]; first compound 0.6325 µM): 0.244
relative viability ([2]; first compound 2 µM): 0.197
relative viability ([3]; first compound 0.0025 µM): 0.329
relative viability ([3]; first compound 0.007906 µM): 0.314
relative viability ([3]; first compound 0.025 µM): 0.283
relative viability ([3]; first compound 0.07906 µM): 0.176
relative viability ([3]; first compound 0.25 µM): 0.219
relative viability ([4]; first compound 0.02 µM): 0.258
relative viability ([4]; first compound 0.06325 µM): 0.314
relative viability ([4]; first compound 0.2 µM): 0.257
relative viability ([4]; first compound 0.6325 µM): 0.282
relative viability ([4]; first compound 2 µM): 0.304

NCI-H1355
relative viability ([1]; first compound 0.0025 µM): 0.68
relative viability ([1]; first compound 0.007906 µM): 0.627
relative viability ([1]; first compound 0.025 µM): 0.356
relative viability ([1]; first compound 0.07906 µM): 0.388
relative viability ([1]; first compound 0.25 µM): 0.352
relative viability ([2]; first compound 0.02 µM): 0.371
relative viability ([2]; first compound 0.06325 µM): 0.348
relative viability ([2]; first compound 0.2 µM): 0.3
relative viability ([2]; first compound 0.6325 µM): 0.345
relative viability ([2]; first compound 2 µM): 0.362
relative viability ([3]; first compound 0.0025 µM): 0.394
relative viability ([3]; first compound 0.007906 µM): 0.415
relative viability ([3]; first compound 0.025 µM): 0.322
relative viability ([3]; first compound 0.07906 µM): 0.382
relative viability ([3]; first compound 0.25 µM): 0.308
relative viability ([4]; first compound 0.02 µM): 0.365
relative viability ([4]; first compound 0.06325 µM): 0.332
relative viability ([4]; first compound 0.2 µM): 0.287
relative viability ([4]; first compound 0.6325 µM): 0.238
relative viability ([4]; first compound 2 µM): 0.372

COR-L23
relative viability ([1]; first compound 0.0025 µM): 0.766
relative viability ([1]; first compound 0.007906 µM): 0.723
relative viability ([1]; first compound 0.025 µM): 0.668
relative viability ([1]; first compound 0.07906 µM): 0.436
relative viability ([1]; first compound 0.25 µM): 0.241
relative viability ([2]; first compound 0.02 µM): 0.713
relative viability ([2]; first compound 0.06325 µM): 0.716
relative viability ([2]; first compound 0.2 µM): 0.829
relative viability ([2]; first compound 0.6325 µM): 0.723
relative viability ([2]; first compound 2 µM): 0.843
relative viability ([3]; first compound 0.0025 µM): 0.479
relative viability ([3]; first compound 0.007906 µM): 0.437
relative viability ([3]; first compound 0.025 µM): 0.384
relative viability ([3]; first compound 0.07906 µM): 0.388
relative viability ([3]; first compound 0.25 µM): 0.269
relative viability ([4]; first compound 0.02 µM): 0.721
relative viability ([4]; first compound 0.06325 µM): 0.707
relative viability ([4]; first compound 0.2 µM): 0.781
relative viability ([4]; first compound 0.6325 µM): 0.737
relative viability ([4]; first compound 2 µM): 0.887

HCC-44
relative viability ([1]; first compound 0.0025 µM): 0.774
relative viability ([1]; first compound 0.007906 µM): 0.618
relative viability ([1]; first compound 0.025 µM): 0.614
relative viability ([1]; first compound 0.07906 µM): 0.528
relative viability ([1]; first compound 0.25 µM): 0.187
relative viability ([2]; first compound 0.02 µM): 0.478
relative viability ([2]; first compound 0.06325 µM): 0.486
relative viability ([2]; first compound 0.6325 µM): 0.455
relative viability ([2]; first compound 2 µM): 0.457
relative viability ([3]; first compound 0.0025 µM): 0.249
relative viability ([3]; first compound 0.007906 µM): 0.181
relative viability ([3]; first compound 0.025 µM): 0.187
relative viability ([3]; first compound 0.07906 µM): 0.0805
relative viability ([3]; first compound 0.25 µM): 0.0783
relative viability ([4]; first compound 0.02 µM): 0.47
relative viability ([4]; first compound 0.06325 µM): 0.558
relative viability ([4]; first compound 0.2 µM): 0.475
relative viability ([4]; first compound 0.6325 µM): 0.564
relative viability ([4]; first compound 2 µM): 0.485

A-427
relative viability ([1]; first compound 0.0025 µM): 0.91
relative viability ([1]; first compound 0.007906 µM): 1.02
relative viability ([1]; first compound 0.025 µM): 0.437
relative viability ([1]; first compound 0.07906 µM): 0.607
relative viability ([1]; first compound 0.25 µM): 0.269
relative viability ([2]; first compound 0.02 µM): 0.575
relative viability ([2]; first compound 0.06325 µM): 0.445
relative viability ([2]; first compound 0.6325 µM): 0.549
relative viability ([2]; first compound 2 µM): 0.416
relative viability ([3]; first compound 0.0025 µM): 0.234
relative viability ([3]; first compound 0.007906 µM): 0.286
relative viability ([3]; first compound 0.025 µM): 0.22
relative viability ([3]; first compound 0.07906 µM): 0.207
relative viability ([3]; first compound 0.25 µM): 0.137
relative viability ([4]; first compound 0.02 µM): 0.726
relative viability ([4]; first compound 0.06325 µM): 0.707
relative viability ([4]; first compound 0.6325 µM): 0.679
relative viability ([4]; first compound 2 µM): 0.742

NCI-H520
relative viability ([1]; first compound 0.0025 µM): 0.768
relative viability ([1]; first compound 0.007906 µM): 0.887
relative viability ([1]; first compound 0.025 µM): 0.81
relative viability ([1]; first compound 0.07906 µM): 0.818
relative viability ([1]; first compound 0.25 µM): 0.693
relative viability ([2]; first compound 0.02 µM): 0.199
relative viability ([2]; first compound 0.06325 µM): 0.223
relative viability ([2]; first compound 0.2 µM): 0.289
relative viability ([2]; first compound 0.6325 µM): 0.275
relative viability ([2]; first compound 2 µM): 0.266
relative viability ([3]; first compound 0.0025 µM): 0.543
relative viability ([3]; first compound 0.007906 µM): 0.666
relative viability ([3]; first compound 0.025 µM): 0.392
relative viability ([3]; first compound 0.07906 µM): 0.608
relative viability ([3]; first compound 0.25 µM): 0.199
relative viability ([4]; first compound 0.02 µM): 0.275
relative viability ([4]; first compound 0.06325 µM): 0.296
relative viability ([4]; first compound 0.2 µM): 0.275
relative viability ([4]; first compound 0.6325 µM): 0.308
relative viability ([4]; first compound 2 µM): 0.335

LXF-289
relative viability ([1]; first compound 0.0025 µM): 0.961
relative viability ([1]; first compound 0.007906 µM): 0.894
relative viability ([1]; first compound 0.025 µM): 0.758
relative viability ([1]; first compound 0.07906 µM): 0.672
relative viability ([1]; first compound 0.25 µM): 0.495
relative viability ([2]; first compound 0.02 µM): 0.857
relative viability ([2]; first compound 0.06325 µM): 0.763
relative viability ([2]; first compound 0.2 µM): 0.715
relative viability ([2]; first compound 0.6325 µM): 0.731
relative viability ([2]; first compound 2 µM): 0.745
relative viability ([3]; first compound 0.0025 µM): 0.503
relative viability ([3]; first compound 0.007906 µM): 0.451
relative viability ([3]; first compound 0.025 µM): 0.444
relative viability ([3]; first compound 0.07906 µM): 0.422
relative viability ([3]; first compound 0.25 µM): 0.263
relative viability ([4]; first compound 0.02 µM): 0.811
relative viability ([4]; first compound 0.06325 µM): 0.764
relative viability ([4]; first compound 0.2 µM): 0.793
relative viability ([4]; first compound 0.6325 µM): 0.77
relative viability ([4]; first compound 2 µM): 0.806

NCI-H2087
relative viability ([1]; first compound 0.0025 µM): 0.705
relative viability ([1]; first compound 0.007906 µM): 0.442
relative viability ([1]; first compound 0.025 µM): 0.371
relative viability ([1]; first compound 0.07906 µM): 0.28
relative viability ([1]; first compound 0.25 µM): 0.266
relative viability ([2]; first compound 0.02 µM): 0.75
relative viability ([2]; first compound 0.06325 µM): 0.403
relative viability ([2]; first compound 0.2 µM): 0.47
relative viability ([2]; first compound 0.6325 µM): 0.642
relative viability ([2]; first compound 2 µM): 0.587
relative viability ([3]; first compound 0.0025 µM): 0.294
relative viability ([3]; first compound 0.007906 µM): 0.258
relative viability ([3]; first compound 0.025 µM): 0.146
relative viability ([3]; first compound 0.07906 µM): 0.153
relative viability ([3]; first compound 0.25 µM): 0.111
relative viability ([4]; first compound 0.02 µM): 0.942
relative viability ([4]; first compound 0.06325 µM): 0.833
relative viability ([4]; first compound 0.2 µM): 0.769
relative viability ([4]; first compound 0.6325 µM): 0.793
relative viability ([4]; first compound 2 µM): 0.951
